Laboratory results as given in US5340800A, “Peptide medicaments for the treatment of disease” (priority 1992, dated 1994).
Read-outs that look alike come from different tables or passages of the source. No end group written: not given here.

Experiments:
[1] = test system: polymorphonuclear leukocyte migration; test: Chemotaxis of polymorphonuclear leukocytes (trans-well, zymosan-activated human serum); type: cell-based
Procedure: The materials and methods for ascertaining the chemotactic inhibitory properties of peptides are generally known in the art, and the preferred procedure is described by Capsoni, et al., 1989, J. of Immunol. Meth., 120:125. Generally, chemotaxis is determined by positioning the leukocytes and a chemotactic substance on opposite sides of a membrane in appropriate culture media. The preferred apparatus for doing a chemotaxis assay is produced by Costar Corporation, Cambridge, Mass., and is termed the trans-well cell culture apparatus. […] If a substance is being tested for inhibitory activity this can be achieved by combining it with the leukocytes or the chemotactic substance.
The procedure of Capsoni, et al., above, was followed with the following modifications. Leukocytes may be isolated and labelled with ^111 Indium as described for the adhesion assay, above. The cells are resuspended after labelling in an appropriate cell culture medium at about 5×10^6 cells/ml. Next, a desired amount of the cell suspension is mixed with a predetermined amount of the peptide(s) to be tested for inhibitory activity, and the mixture added to an appropriate filter device. Three μm-pore membranes are situated in the wells of a 24 trans-well tissue culture plate. The cell/inhibitory peptide mixture is incubated for a short time at 37° C. to acclimate the cells to the membrane surface, and to provide sufficient time for them to settle onto the membrane surface. Next, inserts are set in wells containing cell culture media. The media contains zymosan-activated human serum at about 0.5%. Zymosan activation generates complement-derived chemotactic factors which attract the leukocytes through the pores of the membrane. This media was also prewarmed for an appropriate time prior to addition to the cell culture wells. After a 30 minute incubation period at 37° C., the number of leukocytes that have migrated through the membrane filter, in the presence or absence of CD18 peptides, is readily determined by counting the amount of ^111 Indium present in the media. This may be facilitated by adding an appropriate detergent at an appropriate concentration to the media in the wells prior to removing an aliquot for counting. In this way, the inhibitory activities of the peptide being tested could be determined.
Many of the materials and methods used to test the inhibitory activity of the CD18 peptides on the chemotactic response of the polymorphonuclear leukocytes are similar or identical to those used to perform the adhesion assays described in Example 1. Polymorphonuclear leukocytes were isolated and labelled with ^111 Indium as described before, and the cells were suspended in RPMI 1640 culture medium at a concentration of 5×10^6 /ml. Next, 75 μl of the cell suspension and 25 μl of media containing a desired concentration of a CD18 peptide were added to trans-well inserts, and the mixture was incubated at 37° C. for 10 minutes.
To the bottom wells of the 24-well plate 0.6 ml of media containing 0.5% zymosan-activated human serum was added. This solution was also warmed to 37° C. for 10 minutes prior to use.
Next, the assay was conducted by incubating the trans-well inserts containing the cell suspension with the desired CD18 peptide in the 24-well plates at 37° C. for 30 minutes. Subsequently, the inserts were removed, and 60 μl of a 10% sodium dodecyl sulphate solution was added to the wells of the 24-well plate. The plates were incubated with gentle shaking at room temperature for 15 minutes, and 110 μl aliquots were removed and the amount of ^111 Indium determined using a gamma-counter.

[2] = test system: polymorphonuclear leukocyte adhesion to TNF activated endothelial cells; type: cell-based, human; conditions: for Average % Change of PMN Adhesion to TNF Activated ECs: average over PMN donors (# donors in parentheses)
Procedure: Leukocyte adherence can be measured using several assays known in the art, and the preferred assay is described by Charo, et al., 1985, Blood, 65:473. Briefly, the assay consists of labelling leukocytes with an appropriate label, incubating them with endothelial cells and determining the number of leukocytes that adhere. Preferably the cells are labelled with a gamma ray emitting isotope and the preferred labels are ^111 Indium-oxide or ^51 chromium.
Leukocytes may be isolated from human donors using standard techniques. This generally consists of isolating blood in a physiologically balanced salt solution containing an appropriate anticoagulant, and separating the leukocytes by an appropriate separation step, preferably on Ficoll-Hypaquegradients. Contaminating erythrocytes can be removed by hypotonic lysis. The resulting leukocytes are suspended in a physiologically buffered solution, pH 7.4. The preferred physiological buffered solution is Hank's balanced salt solution that is calcium and magnesium free.
The isolated leukocytes can then be labelled by incubating them for an appropriate time, generally 15 minutes, with the desired radioisotope at a predetermined concentration. The radiolabelled cells are washed to remove unincorporated label, and then suspended in an appropriate solution to perform the adhesion assay described below.
Endothelial cells can be prepared from a number of sources and by several techniques known in the art. Preferably they are obtained from human umbilical veins using the procedure of Charo et al., above. Generally, endothelial cells are isolated by enzymatic digestion of the umbilical veins using, preferably, collagenase as described by Jaffe, E. A., et al., 1973, J. of Clin. Invest, 52:2745. The cells are grown on an appropriate tissue culture substratum, preferably gelatine-coated surfaces.
The endothelial cells may be grown in a variety of tissue culture media containing appropriate supplements such as an appropriate concentration of fetal calf serum, and other supplements/additives routinely utilized by those skilled in this art that are recognized as being favorable for endothelial cells. The endothelial cells may be passaged with a dilute solution of an appropriate protease, and if desired a metal ion chelator. Preferably a solution consisting of 0.05 to 0.25% trypsin and 0.02% EDTA is used. To ensure that the cells are indeed endothelial cells, they are tested by immunofluorescence for Factor VIII antigen, a known endothelial cell marker.
Leukocyte adherence to endothelial cell monolayers may be determined as follows. Early passage endothelial cells, generally not beyond the fifth passage, are cultured on an appropriate substratum and in a suitable cell culture medium. The culture substratum is preferably pre-coated with an appropriate substance that enhances the adherence of the endothelial cells. Several such substances are known including fibronectin, poly-L-lysine, gelatin and laminin. Fibronectin is preferred. An appropriate culture substratum is a 96 well micro titer plate, and a suitable medium is Medium 199 containing fetal calf serum and other supplements known to be beneficial for the growth and maintenance of endothelial cells that are well known to those skilled in the art. Prior to adding a predetermined number of labelled leukocytes, the endothelial cell monolayer is washed with a physiologically balanced salt solution containing a reduced amount of fetal calf serum, preferably 1%. The preferred solution is RPMI supplemented with 1% fetal calf serum.
The endothelial cell monolayer containing added leukocytes is incubated for a time sufficient to permit maximum adherence of the leukocytes, and preferably this is conducted at 37° C. for 30 minutes in an appropriate cell culture atmosphere. Generally this would consist of growing and incubating the cells for the assay period in 5% CO2, 95% air, and 95% humidity. […]

YPIDLYYLMDLSYSMLDDLRNVKKLG [Peptide 1-26, NH2 --Tyr--Pro--Ile--Asp--Leu--Tyr--Tyr--Leu--Met--Asp--Leu--Ser--Tyr--Ser--Met--Leu--Asp--Asp--Leu--Arg--Asn--Val--Lys--Lys--Leu--Gly--COOH]
percent inhibition (-) or enhancement of polymorphonuclear leukocyte migration ([1]; 10^-4 M, donor 195): 19%
percent inhibition (-) or enhancement of polymorphonuclear leukocyte migration ([1]; 10^-4 M, donor 499): 8%
percent inhibition (-) or enhancement of polymorphonuclear leukocyte migration ([1]; 10^-4 M, donor 591): -9%
percent inhibition (-) or enhancement of polymorphonuclear leukocyte migration ([1]; 10^-4 M, donor 593): -50%
percent inhibition (-) or enhancement of polymorphonuclear leukocyte migration ([1]; 10^-5 M, donor 195): -41%
percent inhibition (-) or enhancement of polymorphonuclear leukocyte migration ([1]; 10^-5 M, donor 499): -3%
percent inhibition (-) or enhancement of polymorphonuclear leukocyte migration ([1]; 10^-5 M, donor 591): -36%
percent inhibition (-) or enhancement of polymorphonuclear leukocyte migration ([1]; 10^-5 M, donor 593): -19%
percent inhibition (-) or enhancement of polymorphonuclear leukocyte migration ([1]; 10^-6 M, donor 195): -37%
percent inhibition (-) or enhancement of polymorphonuclear leukocyte migration ([1]; 10^-6 M, donor 499): 13%
percent inhibition (-) or enhancement of polymorphonuclear leukocyte migration ([1]; 10^-6 M, donor 591): -39%
percent inhibition (-) or enhancement of polymorphonuclear leukocyte migration ([1]; 10^-6 M, donor 593): -14%
concentration of peak inhibitory activity in the PMN adhesion assay [2]: 10^-4 to 10^-5 M
Average % Change of PMN Adhesion to TNF Activated ECs ([2]; 10^-4 M): -41%
Average % Change of PMN Adhesion to TNF Activated ECs ([2]; 10^-5 M): -33%
Average % Change of PMN Adhesion to TNF Activated ECs ([2]; 10^-6 M): -6%
Average % Change of PMN Adhesion to TNF Activated ECs ([2]; 10^-7 M): +24%
Average % Change of PMN Adhesion to TNF Activated ECs ([2]; 10^-8 M): +9%
